# Experimental data from patent US7358214B2, “Pyrazolyl carboxanilides for controlling unwanted microorganisms” (Bayer CropScience AG, priority 2003, dated 2008).
# System: not listed separately
# Test: logP determination by HPLC on reversed-phase column (C 18), pH 2.3
# Type: physicochemical
# Settings: reversed-phase HPLC column (C 18), HPLC reversed-phase C 18, 43° C.
# Method: The logP values given in the preparation examples and the tables above are determined in accordance with EEC Directive 79/831 Annex V.A8 by HPLC (High Performance Liquid Chromatography) on a reversed-phase column (C 18). Temperature: 43° C. The determination is carried out in the acidic range at pH 2.3 using the mobile phases 0.1% aqueous phosphoric acid and acetonitrile; linear gradient from 10% acetonitrile to 90% acetonitrile. Calibration is carried out using unbranched alkan-2-ones (having 3 to 16 carbon atoms) with known logP values (determination of the logP values by retention times using linear interpolation between two successive alkanones).
row,chromatographic logP,SMILES
1,4.45,CCC(C)(C)CC(C)c1ccccc1NC(=O)c1c(C(F)(F)F)nn(C)c1F (stereo not shown) [Example 3]
2,3.92,CC(C)CC(C)c1cc(F)ccc1NC(=O)c1c(C(F)(F)F)nn(C)c1F (stereo not shown) [Example 5]
3,3.88,CC(C)CC(C)c1ccccc1NC(=O)c1c(C(F)(F)F)nn(C)c1F (stereo not shown) [Example 2]
4,4.27,CCC(CC(C)C)c1ccccc1NC(=O)c1c(C(F)(F)F)nn(C)c1F (stereo not shown) [Example 4]
5,4.14,"CC(CC(C)(C)C)c1ccccc1NC(=O)c1c(C(F)(F)F)nn(C)c1F (stereo not shown) [Example 1, [5-fluoro-1-methyl-3-(trifluoromethyl)pyrazol-4-yl]-N-[2-(1,3,3-trimethylbutyl)phenyl]carbox-amide]"

# System: Sphaerotheca fuliginea
# Test: Spaerotheca test (cucumber)/protective
# Type: in vivo
# Settings: application rate 100 g/ha; protective; evaluation 7 days after inoculation
# Method: (§1) [table] To produce a suitable preparation of active compound, 1 part by weight of active compound is mixed with the stated amounts of solvents and emulsifier, and the concentrate is diluted with water to the desired concentration. To test for protective activity, young plants are sprayed with the preparation of active compound at the stated application rate. After the spray coating has dried on, the plants are inoculated with an aqueous spore suspension of Sphaerotheca fuliginea. The plants are then placed in a greenhouse at about 23° C. and a relative atmospheric humidity of about 70%. Evaluation is carried out 7 days after the inoculation. 0% means an efficacy which corresponds to that of the control, whereas an efficacy of 100% means that no infection is observed.
row,SMILES,Efficacy in % [%]
1,CCC(C)(C)CC(C)c1ccccc1NC(=O)c1c(C(F)(F)F)nn(C)c1F (stereo not shown) [drawing 34],98
2,CC(C)CC(C)c1ccccc1NC(=O)c1c(C(F)(F)F)nn(C)c1F (stereo not shown) [drawing 33],100
3,CC(CC(C)(C)C)c1ccccc1NC(=O)c1c(C(F)(F)F)nn(C)c1F (stereo not shown) [drawing 32],100

# System: Alternaria mali
# Test: In vitro test for the ED50 determination in microorganisms
# Type: cell-based
# Settings: 50% inhibition of fungal growth, 22° C., 3-5 days, photometric at 620 nm
# Method: A methanolic solution of the active compound to be tested, mixed with emulsifier PS16, is pipetted into the wells of a microtiter plate. After the solvent has evaporated, 200 μl of potato dextrose medium are added to each well. Beforehand, a suitable concentration of spores or mycelium of the fungus to be tested was added to the medium. The resulting concentrations of active compound are 0.1, 1, 10 and 100 ppm. The resulting concentration of the emulsifier is 300 ppm. The plates are then incubated on a shaker at a temperature of 22° C. for 3-5 days, until sufficient growth can be observed in the untreated control. Evaluation is carried out photometrically at a wavelength of 620 nm. The dose of active compound which causes 50% inhibition of fungal growth compared to the untreated control (ED50) is calculated from data measured at different concentrations.
row,SMILES,ED50 value in ppm [ppm]
1,CC(C)CC(C)c1ccccc1NC(=O)c1c(C(F)(F)F)nn(C)c1F (stereo not shown) [drawing 42],0.28
2,CCC(C)(C)CC(C)c1ccccc1NC(=O)c1c(C(F)(F)F)nn(C)c1F (stereo not shown) [drawing 43],<0.1
3,CC(CC(C)(C)C)c1ccccc1NC(=O)c1c(C(F)(F)F)nn(C)c1F (stereo not shown) [drawing 41],<0.1

# System: Venturia inaequalis
# Test: Venturia test (apple)/protective
# Type: in vivo
# Settings: application rate 100 g/ha; protective; evaluation 10 days after inoculation
# Method: as §1, with “conidia” for “spore”, “the apple scab pathogen Venturia inaequalis and then remain in an incubation cabin at about 20° C. and 100% relative atmospheric humidity for 1 day.” for “Sphaerotheca fuliginea.”, “21°” for “23°”, “90%.” for “70%.”, “10” for “7”
row,SMILES,Efficacy in % [%]
1,CC(CC(C)(C)C)c1ccccc1NC(=O)c1c(C(F)(F)F)nn(C)c1F (stereo not shown) [drawing 35],100
2,CCC(C)(C)CC(C)c1ccccc1NC(=O)c1c(C(F)(F)F)nn(C)c1F (stereo not shown) [drawing 37],99
3,CC(C)CC(C)c1ccccc1NC(=O)c1c(C(F)(F)F)nn(C)c1F (stereo not shown) [drawing 36],100

# System: Botrytis cinerea
# Test: Botrytis test (bean)/protective
# Type: in vivo
# Settings: application rate 500 g/ha; protective; evaluation two days after inoculation
# Method: [table] To produce a suitable preparation of active compound, 1 part by weight of active compound is mixed with the stated amounts of solvents and emulsifier, and the concentrate is diluted with water to the desired concentration. To test for protective activity, young plants are sprayed with the preparation of active compound at the stated application rate. After the spray coating has dried on, 2 small pieces of agar colonized by Botrytis cinerea are placed onto each leaf. The inoculated plants are placed in a dark chamber at about 20° C. and 100% relative atmospheric humidity. Two days after the inoculation, the size of the infected areas on the leaves is evaluated. 0% means an efficacy which corresponds to that of the control, whereas an efficacy of 100% means that no infection is observed.
row,SMILES,Efficacy in % [%]
1,CC(C)CC(C)c1ccccc1NC(=O)c1c(C(F)(F)F)nn(C)c1F (stereo not shown) [drawing 39],100
2,CCC(C)(C)CC(C)c1ccccc1NC(=O)c1c(C(F)(F)F)nn(C)c1F (stereo not shown) [drawing 40],95
3,CC(CC(C)(C)C)c1ccccc1NC(=O)c1c(C(F)(F)F)nn(C)c1F (stereo not shown) [drawing 38],100

# System: Puccinia recondita
# Test: Puccinia test (wheat)/protective
# Type: in vivo
# Settings: application rate 500 g/ha; protective; evaluation 10 days after inoculation
# Method: • Solvent: 25 parts by weight of N,N-dimethylacetamide • Emulsifier: 0.6 part by weight of alkylaryl polyglycol ether To produce a suitable preparation of active compound, 1 part by weight of active compound is mixed with the stated amounts of solvent and emulsifier, and the concentrate is diluted with water to the desired concentration. To test for protective activity, young plants are sprayed with the preparation of active compound at the stated application rate. After the spray coating has dried on, the plants are sprayed with a conidia suspension of Puccinia recondita. The plants remain in an incubation cabin at 20° C. and 100% relative atmospheric humidity for 48 hours. The plants are then placed in a greenhouse at a temperature of about 20° C. and a relative atmospheric humidity of 80% to promote the development of rust pustules. Evaluation is carried out 10 days after the inoculation. 0% means an efficacy which corresponds to that of the control, whereas an efficacy of 100% means that no infection is observed.
row,SMILES,Efficacy in % [%]
1,CC(CC(C)(C)C)c1ccccc1NC(=O)c1c(C(F)(F)F)nn(C)c1F (stereo not shown) [drawing 30],100
2,CC(C)CC(C)c1ccccc1NC(=O)c1c(C(F)(F)F)nn(C)c1F (stereo not shown) [drawing 31],100
